According to patent publication US20230165836A1, “ALPHA-2 ADRENERGIC RECEPTOR AGONISTS FOR THE TREATMENT OF CANCER” (UNIVERSITÉ CATHOLIQUE DE LOUVAIN, priority 2020, published 2023):
“Also recorded” adds a separate entry of the source.

Assays:
B16F1 melanoma [1] = assay: B16F1 melanoma in immune deficient mice; assay type: in vivo; settings: B16F1 in immune deficient NSG mice; 5 mg/kg, i.p.
Procedure: (§1) FIGS. 10A-B is a set of curves showing the tumor growth of B16F1 melanoma in C57BL/6J (FIG. 10A) or immunodeficient NSG mice (FIG. 10B) treated with PBS (Control, curve 1) or clonidine (5 mg/kg, i.p., curve 2).
(§2) FIGS. 11A-B is a set of curves showing the tumor growth of B16F1 melanoma in C57BL/6J (FIG. 11A) or NSG mice (FIG. 11B) treated with PBS (Control, curve 1) or guanfacine (5 mg/kg, i.p., curve 2).

[2] = test system: immune-resistant autochthonous melanoma tumors (TiRP); assay: TiRP melanoma with adoptive cell transfer (ACT) of P1A-specific CD8+T cells; assay type: in vivo, TiRP mice
Excerpt: TiRP mice have been created by crossing Ink4a/Are^flox/flox mice with mice carrying a transgenic construct controlled by the tyrosinase promoter and driving the expression of H-Ras ^12V and Trapl a which encodes a MAGE-type tumor antigen P1A; the promoter is separated from the coding region by a stop cassette made of a floxed self-deleting CreER (Huijbers et al., 2006, Cancer Res 66, 3278-3286). Those mice were backcrossed to a B10.D2 background and bred to homozygosity. TCRP1A mice heterozygous for the H-2Ld/P1A35-43-specific TCR transgene were kept on the B10.D2;Rag1^−/− background (Shanker et al., 2004, J Immunol 172, 5069-5077). BALB/c mice were used in tumor transplantation experiments. TiRP-derived T429.11 transplanted melanoma model: T429.11 clone was derived from an induced Amela TiRP tumor referred to as T429. It was cloned from the T429 induced melanoma primary tumor line. Two million of T429.11 tumor cells were injected subcutaneously into recipient mice for tumor establishment (Zhu et al., 2017, Nat Commun. 10; 8(1):1404). Adra2a tm1Bkk mice (Strain Name: B6.129-Adra2a tm1Bkk /J, # 004367) were obtained from Jackson Laboratory (Bar Harbor, Me., USA).
(§3) A fresh solution of 40H-Tamoxifen was prepared by dissolving 40H-Tamoxifen (Imaginechem®) in 100% ethanol and mineral oil (ratio 1:9) followed by 30 min sonication, and injected subcutaneously (2 mg/200 uL per mouse) in the neck area of gender-matched 7 weeks old TiRP mice. Tumor appearance was monitored daily and tumors were measured three times/week. Tumor volume (in mm^3) was calculated by the following formula: Volume=width^2×length/2.
For the adoptive cell transfer (ACT), P1A-specific (TCRP1A) CD8+T cells were isolated from spleens and lymph nodes of TCRP1A mice as described hereinabove, and stimulated in vitro by co-culture with irradiated (10,000 rads) L1210.P1A.B7-1 cells (Gajewski et al., 1995, J Immunol 154, 5637-5648) at 1:2 ratio (0.5×10^5 CD8+T cells and 10^5 L1210.P1A.B7-1 cells per well in 48-well plates) in IMDM (GIBCO®) containing 10% fetal bovine serum supplemented with L-arginine (0.55 mM, Merck®), L-asparagine (0.24 mM, Merck®), glutamine (1.5 mM, Merck®), beta-mercaptoethanol (50 μM, Sigma Aldrich®), 50 U mL^−1 penicillin and […] mL^−1 streptomycin (Life Technologies®). Four days later, TCRP1A CD8+T cells were purified on a Lymphoprep gradient (StemCell®) and 10^7 living cells were injected intravenously in 200 μL PBS in TiRP-tumor bearing mice on the day of randomization.
TiRP-tumor bearing mice received adoptive cell transfer (ACT) of 10^7 P1A-specific activated CD8+T cells and daily injections of vehicle control, clonidine (5 mg/kg, i.p.), or clonidine (5 mg/kg, i.p.) combined with phentolamine (5 mg/kg, i.p.), when the tumor size was around 500 mm^3, until the day of sacrifice. Tumor size was monitored every 2 days. Mice were sacrificed when the tumor in control group reached around 2,000 mm^3.
TiRP-tumor bearing mice received adoptive cell transfer (ACT) of 10^7 of P1A-specific activated CD8+T cells. Daily injections of 5 mg/kg i.p. of romifidine or clonidine were thus administered from the day of the ACT, when the tumor size was around 500 mm^3, until the day of sacrifice. As shown on FIGS. 5A-B, following romifidine or clonidine administration, tumor infiltration of CD8+T cells was increased. […]

B16F1 melanoma [3] = assay: B16F1 melanoma in immune competent mice; assay type: in vivo; settings: B16F1 in immune competent C57BL/6 mice; 5 mg/kg, i.p.; monotherapy
Procedure: as §1, §2

TiRP melanoma = TiRP melanoma model, monotherapy; assay type: in vivo; settings: TiRP+/+ mice; 5 mg/kg, i.p. daily from tumor size around 250 mm^3
Procedure: FIGS. 14A-B is a set of curves showing the tumor growth (melanoma) in TiRP+/+ mice that have received daily injections of guanfacine (5 mg/kg, i.p. triangles; FIG. 14A), clonidine (5 mg/kg, i.p., circles; FIG. 14B), or control (PBS, i.p., squares), when the tumor size was around 250 mm^3 until sacrifice.
TiRP mice have been created by crossing Ink4a/Are^flox/flox mice with mice carrying a transgenic construct controlled by the tyrosinase promoter and driving the expression of H-Ras ^12V and Trapl a which encodes a MAGE-type tumor antigen P1A; the promoter is separated from the coding region by a stop cassette made of a floxed self-deleting CreER (Huijbers et al., 2006, Cancer Res 66, 3278-3286). Those mice were backcrossed to a B10.D2 background and bred to homozygosity. TCRP1A mice heterozygous for the H-2Ld/P1A35-43-specific TCR transgene were kept on the B10.D2;Rag1^−/− background (Shanker et al., 2004, J Immunol 172, 5069-5077). […]
as §3

CT26 colon carcinomas = assay: CT26 colon carcinoma model, daily i.p. treatment, tumor volume; assay type: in vivo, BALB/c mice; settings: for effect of co-administered antagonist on the inhibition of tumor growth by clonidine / effect of co-administered antagonist on the inhibition of tumor growth by guanabenz: CT26; for effect of co-administered antagonist on the inhibition of tumor growth by clonidine: clonidine 5 mg/kg i.p. plus phentolamine 5 mg/kg, propranolol 5 mg/kg or yohimbine 10 mg/kg i.p. daily; for effect of co-administered antagonist on the inhibition of tumor growth by guanabenz: guanabenz 5 mg/kg i.p. plus phentolamine 5 mg/kg or yohimbine 10 mg/kg i.p. daily
Procedure: Mice received a daily intra-peritoneal injection of guanabenz (5 mg/kg) or vehicle (PBS) from the day of randomization (and the day of ACT when applicable) until the day of sacrifice. For the co-administration of adrenergic receptor agonist and antagonist, BALB/c mice bearing CT26 colon carcinomas received daily injections of vehicle control, guanabenz (5 mg/kg, i.p.), or guanabenz (5 mg/kg, i.p.) plus yohimbine (10 mg/kg, i.p.), when the tumor size was around 50 mm^3, until the day of sacrifice.
[…] mice were injected subcutaneously with 2×10^6 CT26 colon tumor cells at an age of 6 to 8 weeks. […] For evaluation of yohimbine on the effect of clonidine and guanabenz, the mice were randomized into different groups when tumors size arrived around 100 mm^3 and received daily injections of guanabenz (5 mg/kg, i.p.), yohimbine (10 mg/kg), a mix of guanabenz (5 mg/kg, i.p.) and yohimbine (10 mg/kg, i.p.), clonidine (5 mg/kg, i.p.), a mix of clonidine (5 mg/kg, i.p.) and yohimbine (10 mg/kg, i.p.) or vehicle control. Tumor size was measured every 2 days and mice were sacrificed when the tumor in control group reached 1,000 mm^3.

[4] = test system: JAK2V617F mutated bone marrow; assay: Myelofibrosis by JAK2V617F bone marrow transplantation, platelet counts; assay type: in vivo, mice; settings: 5 mg/kg daily for three weeks
Procedure: Murine femurs and tibias from JAK2V617F mutant mice were first harvested and cleaned thoroughly. Marrow cells were flushed into PBS with 2% fetal bovine serum using a 25G needle and syringe. Resulting cell suspensions were then filtered through a 40 uM cell strainer. Recipient mice were irradiated with two doses of 500 rad 4 h apart. 1 million of donor cells were injected into wild-type recipients by standard intravenous injection using a 27G insulin syringe. One week after bone marrow transplantation, mice were treated with guanabenz or clonidine at a dose of 5 mg/kg daily for three weeks. After three weeks of treatment, mice were dissected and peripheral blood was drawn by cardiac puncture, the platelet concentration was measured by Cell Counter Analyzer MS9-5V.

[5] = test system: human LS411N ovarian cancer; assay: LS411N xenograft with adoptive transfer of allogeneic human PBMC; assay type: in vivo
Procedure: (§4) Adoptive transfer of human PBMC was performed when tumor size reaches 100 mm^3.

JAK2V617F allele burden = assay: Myelofibrosis by JAK2V617F bone marrow transplantation, allele burden; assay type: in vivo, C57BL/6 mice; settings: 5 mg/kg i.p. daily; Day 7 versus Day 0
Procedure: Bone marrow from primary CD45.2 JAK2V617F mice was mixed 1:1 with CD45.1 C57BL/6 marrow and transplanted into lethally irradiated CD45.2 C57BL/6 recipients. 1 month after bone marrow transplantation, mice were randomized into three groups and received daily i.p injection of 5 mg/kg of clonidine, guanabenz or PBS. Blood was taken on Day 0 (Just before the treatment) and on Day 7 (7 days after the treatment). The allele burden was assessed as a fraction of CD45.2 cells along total CD45 cells in the blood of mice.
Decreased JAK2V617F allele burden is a golden standard method to evaluate the disease progression of MF.

MC38 colon carcinomas [6] = assay: MC38 colon carcinoma in Adra2a KO mice; assay type: in vivo, C57BL/6 Adra2a KO mice; settings: 5 mg/kg, i.p. daily from tumor size around 50 mm^3
Procedure: (§5) C57BL/6 Wildtype or C57BL/6 Adra2a KO mice bearing MC38 colon carcinomas received daily injections of vehicle control (PBS), clonidine (5 mg/kg, i.p.) or guanabenz (5 mg/kg, i.p.), when the tumor size was around 50 mm^3, until the day of sacrifice.

CT26 colon cancer = CT26 colon cancer tumor growth (FIGS. 15-16); assay type: in vivo, C57BL/6J mice
Excerpt: Tumor infiltration of CD8+cells evaluated at the day of sacrifice by FACS (FIG. 15B). Tumor growth of CT26 colon cancer in NSG mice treated with PBS (Control), clonidine, clonidine mixed with yohimbine, or yohimbine alone (FIG. 15C). FIGS. 16A-C is a set of curves and histograms showing the tumor growth of CT26 colon cancer in C57BL/6J mice treated with PBS (Control, circles), guanabenz (diamonds), guanabenz mixed with yohimbine (light grey inverted triangles), or yohimbine alone (dark grey inverted triangles) (FIG. 16A); the tumor infiltration of CD8+ cells evaluated at the day of sacrifice by FACS (FIG. 16B); and the tumor growth of CT26 colon cancer in NSG mice treated with PBS (Control), guanabenz, guanabenz mixed with yohimbine, or yohimbine alone (FIG. 16C). […] For evaluation of yohimbine on the effect of clonidine and guanabenz, the mice were randomized into different groups when tumors size arrived around 100 mm^3 and received daily injections of guanabenz (5 mg/kg, i.p.), yohimbine (10 mg/kg), a mix of guanabenz (5 mg/kg, i.p.) and yohimbine (10 mg/kg, i.p.), clonidine (5 mg/kg, i.p.), a mix of clonidine (5 mg/kg, i.p.) and yohimbine (10 mg/kg, i.p.) or vehicle control.

MC38 colon carcinomas [7] = assay: MC38 colon carcinoma in wildtype mice; assay type: in vivo, C57BL/6 Wildtype mice; settings: 5 mg/kg, i.p. daily from tumor size around 50 mm^3
Procedure: as §5

prostate cancer = assay: Xenograft model of prostate cancer in NSG mice treated with PBMC; assay type: in vivo
human LS411N cancer = assay: LS411N xenograft with adoptive transfer of allogeneic human PBMC; assay type: in vivo; settings: PBMC, clonidine mixed with yohimbine
Procedure: as §4

Structure (SMILES): N=C(N)NC(=O)Cc1c(Cl)cccc1Cl [guanfacine]
- tumor growth (B16F1 melanoma [1]): No tumor inhibition was found
- tumor growth, combined with ACT ([2]; TiRP mice, ACT of 10^7 P1A-specific CD8+T cells, 5 mg/kg i.p. daily): inhibited the tumor growth
- tumor growth (B16F1 melanoma [3]): inhibited tumor growth
- tumor volume, monotherapy (TiRP melanoma): efficient in decreasing the tumor volume

Structure (SMILES): N=C(N)N/N=C/c1c(Cl)cccc1Cl [guanabenz]
- tumor growth (tumor volume) (CT26 colon carcinomas; CT26 in BALB/c mice, 5 mg/kg, i.p. daily from tumor size around 50 mm^3 until sacrifice): promotes a decrease of the tumor volume; also recorded: strongly inhibited CT26 tumor growth
- platelet (PLT) counts [4]: significantly reduces the platelet (PLT) counts; also recorded: significantly reduced the high platelet counts
- tumor growth ([5]; human allogenic PBMC transferred at tumor size 100 mm^3): significant tumor inhibition
- JAK2V617F allele burden (CD45.2 cells among total CD45 cells in blood) (JAK2V617F allele burden): decrease of JAK2V617F allele burden in a number of mice
- tumor inhibition in Adra2a KO mice (MC38 colon carcinomas [6]): almost completely attenuated
- tumor growth (CT26 colon cancer; CT26 colon cancer, FIGS. 15A, 16A): inhibited CT26 colon cancer tumor growth
- tumor growth (MC38 colon carcinomas [7]): significant tumor inhibition
- tumor growth (prostate cancer): strong tumor inhibition

Structure (SMILES): COC(=O)[C@@H]1[C@H]2C[C@H]3c4[nH]c5ccccc5c4CCN3C[C@@H]2CC[C@@H]1O [yohimbine]
- effect of co-administered antagonist on the inhibition of tumor growth by clonidine (CT26 colon carcinomas): strongly attenuated; also recorded: reduced the inhibition of tumor growth
- effect of co-administered antagonist on the inhibition of tumor growth by guanabenz (CT26 colon carcinomas): strongly attenuated; also recorded: reduced the inhibition of tumor growth
- effect of yohimbine on the tumor inhibition by guanabenz ([5]; PBMC, guanabenz mixed with yohimbine): strongly attenuated
- effect of yohimbine on the tumor inhibition by clonidine (human LS411N cancer): strongly attenuated
- effect of yohimbine on the inhibition of tumor growth by clonidine (CT26 colon cancer; CT26, clonidine mixed with yohimbine): strongly attenuated
- effect of yohimbine on the inhibition of tumor growth by guanabenz (CT26 colon cancer; CT26, guanabenz mixed with yohimbine): strongly attenuated

Structure (SMILES): Fc1cccc(Br)c1NC1=NCCN1 [romifidine]
- tumor infiltration of CD8+T cells (%CD8+T cells among total CD45+T cells) ([2]; TiRP mice with ACT, 5 mg/kg i.p. daily from day of ACT, tumor size around 500 mm^3, 5 mg/kg): increase of tumor infiltration of CD8+T cells; also recorded: increased

Structure (SMILES): Cc1ccc(N(CC2=NCCN2)c2cccc(O)c2)cc1 [Phentolamine]
- effect of co-administered antagonist on the inhibition of tumor growth by clonidine (CT26 colon carcinomas): attenuated the inhibitory effect
- effect of co-administered antagonist on the inhibition of tumor growth by guanabenz (CT26 colon carcinomas): attenuated the inhibitory effect
- effect of phentolamine on the inhibition of TiRP tumor growth by clonidine ([2]; ACT, clonidine 5 mg/kg i.p. plus phentolamine 5 mg/kg i.p. daily): attenuated the inhibitory effect of clonidine on TiRP tumor growth
